This experiment relates to Pseudomonas aeruginosa. The experiment is described as follows: Anti-biofilm activity against Pseudomonas aeruginosa PAO1 harboring wspF gene mutation assessed as reduction on c-di-GMP level by measuring GFP fluorescence at 100 uM incubated for 24 hrs […]. Details: scale not given: the % may be the effect or the level left. The format is functional.

Turning to `N=C1NN=C(N)/C1=N/Nc1ccncc1F`, the Activity was 0%.

With `N=C1NN=C(N)/C1=N/Nc1cc(Br)cc(Br)c1`, the Activity is listed as 0%.

In the case of `N=C1ON=C(N)/C1=N/Nc1ccccc1O`, the Activity amounted to 0%.

`N=C1NN=C(N)/C1=N/Nc1ccc(F)cc1F`: the Activity was found to be 41%.

Turning to `N=C1ON=C(N)/C1=N/Nc1cc(F)ccc1F`, the Activity was determined as 0%.

On to `N=C1NN=C(N)/C1=N/Nc1ccccc1Cl`, for which the Activity is recorded as 0%.

As to `N=C1/C(=N\Nc2ccccc2F)C(N)=NN1C(=O)c1ccccc1`, the Activity was 0%.

Take `N=C1ON=C(N)/C1=N/Nc1ccccc1F`: the Activity came to 0%.

In the case of `N=C1NN=C(N)/C1=N/Nc1cccc(O)c1`, the Activity turned out to be 0%.

As to `N=C1/C(=N\Nc2ccccc2F)C(N)=NN1c1ccc(F)cc1`, the Activity stood at 0%.

Take `N=C1NN=C(N)/C1=N/Nc1cc(F)ccc1F`: the Activity came out at 65%.

As for `N=C1NN=C(N)/C1=N/Nc1cc(Br)ccc1F`, the Activity is 0%.

`NC1=NOC(=O)/C1=N\Nc1ccccc1F`: the Activity came out at 0%.

Consider `N=C1ONC(=O)/C1=N\Nc1ccccc1F`, for which the Activity is recorded as 0%.

As for `N=C1NN=C(N)/C1=N/Nc1ccc(F)cc1`, the Activity is 44%.

As to `N=C1NN=C(N)/C1=N/Nc1cccc(F)c1F`, the Activity is reported as 48%.

For the compound `O=C1NNC(=O)C1=NNc1ccccc1F`, the Activity was found to be 0%.

As for `N=C1NN=C(N)/C1=N/Nc1cc(F)cc(F)c1`, the Activity stood at 35%.

For the compound `N=C1NN=C(N)/C1=N/Nc1ccccc1F`, the Activity amounted to 83%.

For the compound `N=C1ON=C(N)/C1=N/Nc1c(F)cccc1F`, the Activity is 0%.

With `CC(=O)NC1=NN(C(C)=O)C(=N)/C1=N\Nc1ccccc1F`, the Activity is 0%.

Consider `N=C1/C(=N\Nc2ccccc2F)C(N)=NN1Cc1ccccc1`, for which the Activity came out at 0%.

As for `N=C1NN=C(N)/C1=N/Nc1ccccc1C(F)(F)F`, the Activity is 0%.

Consider `O=C1NOC(=O)/C1=N\Nc1ccccc1F`, for which the Activity was found to be 0%.

Take `N=C1/C(=N\Nc2ccccc2F)C(N)=NN1CCO`: the Activity came out at 0%.

As to `N=C1NN=C(N)/C1=N/Nc1ccccc1I`, the Activity came out at 0%.

Turning to `N=C1NN=C(N)/C1=N/Nc1cc(F)ccc1Br`, the Activity is 0%.

Regarding `N=C1NN=C(N)/C1=N/Nc1ccccc1Br`, the Activity is reported as 0%.

As to `Cc1ccc(N/N=C2\C(=N)NN=C2N)c(F)c1`, the Activity is listed as 0%.

As for `N=C1NN=C(N)/C1=N/Nc1cccnc1F`, the Activity was 13%.

`N=C1ON=C(N)/C1=N/Nc1c(O)cccc1F`: the Activity came to 0%.

Take `NNc1ccccc1F`: the Activity is on record as 0%.

Regarding `COc1ccc(NN=C2C(N)=NN=C2N)cc1`, the Activity worked out at 0%.

`Cc1cccc(F)c1N/N=C1\C(=N)NN=C1N`: the Activity came to 0%.

For `N=C1NN=C(N)/C1=N/Nc1c(F)ccc(F)c1F`, the Activity is listed as 61%.

With `N=C1/C(=N\Nc2ccccc2F)C(N)=NN1S(=O)(=O)c1ccc(N)cc1`, the Activity stood at 0%.

Consider `N=C1NN=C(N)/C1=N/Nc1ccc(F)c(F)c1F`, for which the Activity is reported as 0%.

For `N=C1NN=C(N)C1c1ccc2ccccc2n1` (stereo unspecified), the Activity was found to be 0%.

Consider `N=C1NN=C(N)/C1=N/Nc1c(F)cc(F)cc1F`, for which the Activity came out at 30%.

As to `N=C1NN=C(N)/C1=N/Nc1cccc(F)c1`, the Activity is on record as 73%.

Turning to `N=C1NN=C(N)/C1=N/Nc1c(F)cccc1Br`, the Activity is 0%.

For the compound `N=C1NN=C(N)/C1=N/Nc1ccccc1O`, the Activity is 55%.

For `N=C1NN=C(N)/C1=N/Nc1cc(Br)ccc1Br`, the Activity is reported as 0%.

`NC1=NNC(=O)/C1=N\Nc1ccccc1F`: the Activity is listed as 0%.

Take `COc1ccccc1N/N=C1\C(=N)NN=C1N`: the Activity was 0%.

Regarding `CC(=O)/N=C1\NN=C(NC(C)=O)\C1=N\Nc1ccccc1F`, the Activity was found to be 0%.

Turning to `N=C1NN=C(N)/C1=N/Nc1c(Br)cccc1Br`, the Activity came to 0%.

Take `N=C1/C(=N\Nc2ccccc2F)C(N)=NN1C(=O)c1ccncc1`: the Activity turned out to be 40%.

As for `N=C1/C(=N\Nc2ccccc2F)C(N)=NN1S(=O)(=O)c1ccccc1`, the Activity was 0%.

As to `N=C1NN=C(N)/C1=N/Nc1c(O)cccc1O`, the Activity was 15%.

For `N=C1NN=C(N)/C1=N/Nc1ccccc1`, the Activity amounted to 71%.

Turning to `N=C1NN=C(N)/C1=N/Nc1ccccc1N`, the Activity is on record as 0%.

For `N=C1NN=C(N)/C1=N/Nc1c(F)cccc1F`, the Activity was 77%.

With `N=C1/C(=N\Nc2ccccc2F)C(N)=NN1c1ccc(C(=O)O)cc1`, the Activity stood at 0%.

For the compound `N=C1/C(=N\Nc2ccccc2F)C(N)=NN1c1ccc(S(N)(=O)=O)cc1`, the Activity worked out at 0%.

For `N=C1NN=C(N)/C1=N/Nc1c(O)cccc1F`, the Activity was determined as 75%.

Values taken from ChEMBL document CHEMBL5107953, “SAR study of 4-arylazo-3,5-diamino-1H-pyrazoles: identification of small molecules that induce dispersal of Pseudomonas aeruginosa biofilms” (2021).
